We go through seven molecules from PubChem BioAssay (NCI).

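Grown in 96-well plates, cells were treated for 48 hours with each compound at five concentrations. Insufficient inhibition: endpoint recorded as highest concentration tested. Abbreviation: GI50, concentration required for 50% inhibition of growth. TGI: total growth inhibition.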 Bounds are passed on as bounds.

Holding throughout (assay): inhibition of tumour cell growth, NCI panel, 48 h
In test [1] the test system is HL-60(TB) leukemia.
Test [2] concerns IGROV1 ovarian.
The subject of test [3] is MOLT-4 leukemia.
For test [4], the system named is NCI/ADR-RES ovarian.
Test [5] relates to OVCAR-8 ovarian.
Test [6] concerns PC-3 prostate.
In test [7] the test system is T-47D breast.
The test system of test [8] is U251 CNS.
Test [9] relates to UACC-62 melanoma.
The subject of test [10] is UO-31 renal.

On to `CC12CCC3c4cc(Br)c(O)c(Br)c4CCC3C1CCC2O` (centres undefined), for which the TGI in test [1] is 66.6 µM; in test [2], 34 µM; in test [3], 42.2 µM; in test [4] it was 62.5 µM; in test [5], 42.1 µM; in [6], greater than 100 µM. Moreover, the TGI in test [7] came out at 83.8 µM; in [8], 29.6 µM; in test [9] it was 33.1 µM; in test [10] it was 46.8 µM.

As for `Cn1c(=S)c2[nH]c(SCCN3C(=O)c4ccccc4C3=O)nc2n(C)c1=O`, the TGI in test [1], in [2], in test [3], in [4], in [5] and in [6] was greater than 100 µM each time. Moreover, the TGI in test [7], in test [8], in test [9] and in test [10] was greater than 100 µM in each case.

For the molecule `CN1CCN(Cc2ccc3c(NNC(=O)c4ccccc4)nc4cc(F)ccc4n23)CC1`, the GI50 is 0.335 µM in test [1]; 0.487 µM in test [2]; 0.291 µM in test [3]; 0.22 µM in [4]; 0.372 µM in test [5]; 0.466 µM in test [6]. In addition, the GI50 is 0.593 µM in test [7], 0.373 µM in [8], 0.36 µM in test [9] and 0.0681 µM in test [10]. Moreover, the TGI is 1.91 µM in test [1]; 49.2 µM in test [2]; 20.2 µM in test [3]; 46.4 µM in test [5]; greater than 66.7 µM in [6]; 22.8 µM in test [7]. Further, the values for the TGI in test [8], in [9] and in test [10] were 19 µM, 3.49 µM and 3.79 µM, respectively.

For `O=c1oc2ccc(-c3ccc(F)cc3F)cc2c(=O)n1-c1ccc(Cl)c(C(F)(F)F)c1`, the GI50 in [1] is 2.43 µM; in [2], 3.14 µM; in test [3] it was 2.33 µM; in [4], 2.49 µM; in [5], 2.99 µM; in [6] it was 2.95 µM. Further, the GI50 in test [7] was 0.585 µM; in [8], 2.36 µM; in [9], 1.55 µM; in test [10], 2.44 µM. For the same molecule, the TGI in [1] was 5.35 µM; in [2], greater than 100 µM; in test [3], 5.45 µM; in [4] it was 8.89 µM; in [5], greater than 100 µM; in test [6], 35.8 µM. Moreover, the TGI in test [7] amounted to 4.34 µM; in [8], 12.5 µM; in test [9], 4.15 µM; in test [10] it was 8.4 µM.

In the case of `Nc1ccccc1C#C/C=C\C#Cc1c(F)c(F)c(F)c(F)c1F`, the GI50 is 28.8 µM in [1]; 10.9 µM in test [2]; 1.76 µM in test [3]; 19.5 µM in [4]; 17.1 µM in test [5]; 16.6 µM in test [6]. For the same molecule, the GI50 in [7] was 23 µM; in test [8], 13 µM; in test [9] it was 12.5 µM; in test [10], 14.6 µM. Besides, the TGI in test [1] was 57.1 µM; in test [2], 24.5 µM; in [3] it was 34.8 µM; in test [4], 41.2 µM; in test [5], 36.7 µM; in [6], 43.3 µM. The TGI in test [7] was 61.6 µM; in [8], 25.7 µM; in [9], 26 µM; in test [10], 28 µM.

Take `Cc1ccc(-c2nc(-c3cn(C)c4ncccc34)cs2)cc1`: the GI50 in [1] is 2.54 µM; in test [2], 7.26 µM; in test [3] it was 4.24 µM; in [4], 1.42 µM; in test [5], 8.99 µM; in [6], 4.49 µM. Besides, the GI50 in [7] was 2.53 µM; in [8] it was 4.4 µM; in [9] it was 3.17 µM; in [10] it was 8.96 µM. The TGI was 26.2 µM in test [1]; 32.2 µM in test [2]; 30.3 µM in [3]; 6.8 µM in test [4]; 38.9 µM in test [5]; greater than 44.1 µM in test [6]. Moreover, the TGI in test [7] was found to be 18.6 µM; in [8], 17 µM; in [9], 16.3 µM; in [10], 40.5 µM.

For `C[C@@H]1COCCN1c1cc(C2([S@@](C)(=N)=O)CC2)nc(-c2ccnc3[nH]ccc23)n1`, the GI50 in [1] was 3.87 µM; in test [2], 5.11 µM; in test [3] it was 3.99 µM; in test [4], 33.9 µM; in test [5] it was 10.9 µM; in [6] it was 10.3 µM. In addition, the GI50 in test [7] was 3.43 µM; in [8] it was 12.3 µM; in [9], 4.29 µM; in test [10], 4 µM. The TGI in test [1] is 41.5 µM; in test [2], greater than 71.1 µM; in [3], 62.6 µM; in [4] it was greater than 100 µM; in test [5], greater than 100 µM; in test [6], greater than 100 µM. Moreover, the TGI was 33.4 µM in test [7], greater than 100 µM in [8], 36.6 µM in test [9] and 50 µM in [10].
